Experimental data taken from US20090029932A1, “Identification and use of miRNAs for differentiating myeloid leukemia cells” (Centre National De La Recherche Scientifique (CNRS), priority 2004, published 2009).

Columns and labels:
NB4 cell line = assay: Granulocytic differentiation, NBT reduction test, NB4 cells; type: cell-based, human; settings: for percentage of cells differentiated during the treatment: 100 μM 8-CPT-cAMP where added, NBT positive cells
Description: (§1) The cells from cell line NB4 and cell line NB4-LR1, resistant at maturation only by ATRA, were grown as described in LANOTTE et al. (1991, previously cited) and in RUCHAUD et al. (Proc. Natl. Acad. Sci., vol. 91, p: 8428-8432, 1994). The cells were then treated for 4 days in the presence of 1 μM of all-trans retinoic acid (ATRA, SIGMA-ALRICH) alone or with the addition of 100 μM of an cAMP analogue (8-CPT-cAMP, SIGMA-ALRICH). The cell proliferation was determined on a daily basis by counting the cells using a cell counter (BECKMAN COULTER FRANCE SA) from day 0, following the addition of the therapeutic agent, to day 4.
(§2) In parallel, the evolution of the differentiation was determined on a daily basis throughout the treatment. The granulocytic differentiation was simultaneously evaluated according to the morphological and biochemical criteria. The morphological analysis was carried out after May-Grünwald colouring. The biochemical analysis was carried out by a coloration test based on the reduction of NBT (nitro blue tetrazolium) that is used to measure the oxidative ability of the mature cells to reduce the NBT colorant. For this purpose, 0.5 to 1×10^5 cells were centrifuged for 5 minutes at 190 g. The cell sediment was then recovered in 200 μl of saline phosphate buffer (PBS) with the addition of NBT (SIGMA ALDRICH, 1 mg/ml) and PMA (Phorbol 12-myristate 13-acetate, SIGMA, 10^−7M) and then was incubated for 20 minutes at 37° C. The cells were then collected on slides by Cytospin® centrifugation, then observed by phase contrast microscopy. A minimum of 200 cells per slide were examined under light microscope and a differentiation percentage was calculated on the basis of the number of positive NBT cells.

NB4-LR1 cell line = assay: Granulocytic differentiation, NBT reduction test, NB4-LR1 cells; type: cell-based, human; settings: for percentage of cells differentiated during the treatment: 100 μM 8-CPT-cAMP where added, NBT positive cells
Description: as §1, §2

miR23a in NB4-LR2 cells = assay: Northern blot of miR23a expression in NB4-LR2 cells; type: cell-based, human; settings: ATRA
miRNAs in NB4 cells = assay: Northern blot of miRNA expression in NB4 cells; type: cell-based, human; settings: 1 μM ATRA
Description: (§3) The total RNA was extracted from the cells of the NB4 cell lines treated or not treated with 1 μM of ATRA, at the same time intervals as in example 1, and using the Tri-Reagent® kit (SIGMA) according to the manufacturer's instructions. The analysis of the low molecular weight RNA by northern blot was carried out as described in LLAVE et al. (2002, previously cited). All of the northern blot experiments were carried out in double. DNA oligonucleotides complementary to the sequences of the miRNAs analysed were labelled at their end with ATP γ-P^32 using the polynucleotide kinase T4 (NEW ENGLAND BIOLABS) by following the manufacturer's instructions.
The quantity of RNA in each well was controlled by coloration of the gel with ethidium bromide and visualisation of the ribosomal RNA (rRNA) under UV light. […] In addition, the miRNAs that seem to belong to a same precursor effectively present a similar expression profile over time.
(§4) To formally establish the correlation between the expression of the different miRNAs identified and the differentiation in granulocytes, cells from NB4 and NB4-LR1 cell lines were cultivated in the presence or absence of ATRA as described in example 1. Northern blot experiments were carried out according to the protocol described in example 2. The different northern blot experiments were carried out with probes complementary to the miRNAs miR-23a, miR-17, miR-18, miR-19a, miR-19b, miR-20, miR-23 and miR-92.
To confirm the correlation between the expression of different miRNAs, and in particular miR-17, miR-18, miR-19a, miR19b, miR-20 and miR-92 and the differentiation in granulocytes, cells from NB4 and NB4-LR1 cell lines were cultivated in the presence or absence of ATRA/cAMP as described in example 1. Following an ATRA/cAMP co-treatment, the differentiation of the cells in the NB4-LR1 cell line in granulocytes is restored. Northern blot experiments were carried out according to the protocol described in example 2. […]

NB4-LR2 cell line = settings: truncated PML-RARa; cited from earlier work
miRNAs in NB4-LR1 cells = assay: Northern blot of miRNA expression in NB4-LR1 cells; type: cell-based, human; settings: NB4-LR1 compared with NB4; ATRA
Description: as §3
as §4, with “miR-92. […]” for “miR-92.”

With CC1=C(/C=C/C(C)=C/C=C/C(C)=C/C(=O)O)C(C)(C)CCC1 [ATRA, all-trans retinoic acid] the “differentiation of the cells (in words)” value (NB4 cell line) was “differentiate”, the “percentage of cells differentiated during the treatment” value (NB4 cell line; day 0, 1 μM ATRA) was 0% and the “percentage of cells differentiated during the treatment” value (NB4 cell line; day 1, 1 μM ATRA) was 6%. The “percentage of cells differentiated during the treatment” value (NB4 cell line; day 2, 1 μM ATRA) was 20%, the “percentage of cells differentiated during the treatment” value (NB4 cell line; day 3, 1 μM ATRA) was 43% and the “percentage of cells differentiated during the treatment” value (NB4 cell line; day 4, 1 μM ATRA) was 95%. For the same compound, the “differentiation of the cells (in words)” value (NB4-LR1 cell line) was “only the cells in the NB4 cell line differentiate”, the “percentage of cells differentiated during the treatment” value (NB4-LR1 cell line; day 0, 1 μM ATRA) was 0% and the “percentage of cells differentiated during the treatment” value (NB4-LR1 cell line; day 1, 1 μM ATRA) was 0%. For the same compound, the “percentage of cells differentiated during the treatment” value (NB4-LR1 cell line; day 2, 1 μM ATRA) was 2%, the “percentage of cells differentiated during the treatment” value (NB4-LR1 cell line; day 3, 1 μM ATRA) was 5% and the “percentage of cells differentiated during the treatment” value (NB4-LR1 cell line; day 4, 1 μM ATRA) was 5%. The “expression of miR23a” value (miR23a in NB4-LR2 cells) was “an increase in the expression of miR23a is not observed”, the “expression profile of miR-19b and miR-92, time of maximum” value (miRNAs in NB4 cells; 0 to 4 days) was “maximum of expression on day three of treatment” and the “level of expression of miR-23a” value (miRNAs in NB4 cells; 0 to 4 days) was “increases over time”. For the same compound, the “level of expression of miR-19b and miR-92 on day 4 of treatment” value (miRNAs in NB4 cells; against non treated cells) was “lower than their level of expression in the non treated cells”, the “sensitivity of the cells to induced differentiation” value (NB4-LR2 cell line) was “insensitive” and the “expression profile of miR-17, miR-18, miR-19a, miR19b, miR-20 and miR-92” value (miRNAs in NB4-LR1 cells) was “different expression profile between the NB4 and NB4-LR1 cells”.
